# Measured values taken from patent US12502369B2, “Methods of cancer treatment” (K-GEN, INC., priority 2015, dated 2025).
# pEC50: −log10 of the molar value. Read-outs that look alike come from different tables or passages of the source.
# Experiments:
# Format in all cases: cell-based
# KP-4 = assay: Proliferation assay (CellTiter Glo), KP-4
# Protocol: (§1) Briefly, cells at a density of 1,000-10,000 cells/well were seeded in 96-well plates and incubated at 37′C for 24 hours. A series of 9 different concentrations of compound stocks (500×) were created by 3-fold serial dilution in DMSO. These compounds were further diluted in culture media and then added to cells so that the final DMSO concentration was 0.2%. After 96 hours of incubation, 50 μL of CellTiter Glo reagent (Promega) was added to each well and luminescence was measured after 10 minutes using EnVision (PerkinElmer). […] The dose range for most compounds was 4.6 nM-30 μM. The dose ranges for some compounds were adjusted downward to 0.46 nM-3 μM or 0.08 nM-0.5 μM or 0.03 nM-0.2 μM. Luminescence from cells treated with […] alone was set as Max and % of inhibition was calculated as follows: Inhibition %=(Max-Sample value)/Max*100. Data was analyzed using XL-fit software (ID Business Solutions Ltd.) and EC50, relative EC50, and % of top inhibition were calculated. The results are shown in Tables 3-6 for pancreatic cancer, lung cancer, colon/gastric cancer, and leukemia cell lines.
# H358 = assay: Proliferation assay (CellTiter Glo), H358
# Protocol: as §1
# HT29 = assay: Proliferation assay (CellTiter Glo), HT29; conditions: HT29 (WT K-ras)
# Protocol: as §1, with “calculated.” for “calculated. The results are shown in Tables 3-6 for pancreatic cancer, lung cancer, colon/gastric cancer, and leukemia cell lines.”
# (§2) Other cancer cell lines having wild-type K-ras status and K-ras mutation at G12 were also screened using the PKC activator compounds. […] K-104 was tested in a range of 0.03 nM-0.2 μM. […] The dose ranges were adjusted downward to 0.46 nM-3 μM for K-102 and 0.08 nM-0.5 μM for K-103 for some cell lines.
# AGS = assay: Proliferation assay (CellTiter Glo), AGS
# Protocol: as §1
# H838 = assay: Proliferation assay (CellTiter Glo), H838; conditions: H838 (WT K-ras)
# Protocol: as §1, with “calculated.” for “calculated. The results are shown in Tables 3-6 for pancreatic cancer, lung cancer, colon/gastric cancer, and leukemia cell lines.”
# as §2
# H441 = assay: Proliferation assay (CellTiter Glo), H441
# Protocol: as §1
# A549 = assay: Proliferation assay (CellTiter Glo), A549
# Protocol: as §1
# MiaPaCa-2 = assay: Proliferation assay (CellTiter Glo), MiaPaCa-2
# Protocol: as §1, with “calculated.” for “calculated. The results are shown in Tables 3-6 for pancreatic cancer, lung cancer, colon/gastric cancer, and leukemia cell lines.”
# HCT116 = assay: Proliferation assay (CellTiter Glo), HCT116
# Protocol: as §1
# SW620 = assay: Proliferation assay (CellTiter Glo), SW620
# Protocol: as §1
# Capan-1 = assay: Proliferation assay (CellTiter Glo), Capan-1
# Protocol: as §1
# SW900 = assay: Proliferation assay (CellTiter Glo), SW900; conditions: SW900 (K-ras: G12V)
# Protocol: as §1, with “calculated.” for “calculated. The results are shown in Tables 3-6 for pancreatic cancer, lung cancer, colon/gastric cancer, and leukemia cell lines.”
# as §2
# BxPC-3 = assay: Proliferation assay (CellTiter Glo), BxPC-3; conditions: BxPC-3 (WT K-ras)
# Protocol: as §1, with “calculated.” for “calculated. The results are shown in Tables 3-6 for pancreatic cancer, lung cancer, colon/gastric cancer, and leukemia cell lines.”
# as §2
# LS180 = assay: Proliferation assay (CellTiter Glo), LS180
# Protocol: as §1
# H1915 = assay: Proliferation assay (CellTiter Glo), H1915; conditions: H1915 (WT K-ras)
# Protocol: as §1, with “calculated.” for “calculated. The results are shown in Tables 3-6 for pancreatic cancer, lung cancer, colon/gastric cancer, and leukemia cell lines.”
# as §2
# Colo205 = assay: Proliferation assay (CellTiter Glo), Colo205; conditions: Colo205 (WT K-ras)
# Protocol: as §1, with “calculated.” for “calculated. The results are shown in Tables 3-6 for pancreatic cancer, lung cancer, colon/gastric cancer, and leukemia cell lines.”
# as §2
# HL60 = assay: Proliferation assay (CellTiter Glo), HL60
# Protocol: as §1
# H727 = assay: Proliferation assay (CellTiter Glo), H727
# Protocol: as §1
# RPMI8226 = assay: Proliferation assay (CellTiter Glo), RPMI8226; conditions: RPMI8226 (K-ras: G12A)
# Protocol: as §1, with “calculated.” for “calculated. The results are shown in Tables 3-6 for pancreatic cancer, lung cancer, colon/gastric cancer, and leukemia cell lines.”
# as §2
# THP1 = assay: Proliferation assay (CellTiter Glo), THP1
# Protocol: as §1
# Panc2.03 = assay: Proliferation assay (CellTiter Glo), Panc2.03; conditions: for Top inhibition %: 96 hours
# Protocol: as §1
# Panc2.13 = assay: Proliferation assay (CellTiter Glo), Panc2.13
# Protocol: as §1
# AsPC-1 = assay: Proliferation assay (CellTiter Glo), AsPC-1
# Protocol: as §1
# CCRF-CEM = assay: Proliferation assay (CellTiter Glo), CCRF-CEM
# Protocol: as §1
# [1] = test system: K-Ras mutant pancreatic, lung, and colon cancer cell lines, leukemia cell lines; assay: Proliferation assays, panel of cancer cell lines (summary statements)
# Protocol: as §1
# [2] = absolute EC50, 96 hours, read-out: Ab EC50
# [3] = relative EC50, 96 hours, read-out: Re EC50
structure (smiles),measurement,setting,value
CC(=O)O[C@@]12C[C@@H](C)[C@]3(O)C4C=C(C)C(O)[C@@]4(O)CC(CO)=C[C@H]3[C@@H]1C2(C)C (some centres unmarked) [Compound K-101C],Top inhibition %,KP-4; 96 hours,70.4%
same,pEC50,KP-4; [2],4.96
same,pEC50,KP-4; [3],5.17
same,Top inhibition %,H358; 96 hours,44.0%
same,pEC50,H358; [2],< 4.52
same,pEC50,H358; [3],5.30
same,Top inhibition %,HT29,4.8%
same,Top inhibition %,AGS; 96 hours,25.3%
same,pEC50,AGS; [2],< 4.52
same,pEC50,AGS; [3],4.96
same,Top inhibition %,H838,20.2%
same,Top inhibition %,H441; 96 hours,37.0%
same,pEC50,H441; [2],< 4.52
same,pEC50,H441; [3],5.13
same,Top inhibition %,A549; 96 hours,70.3%
same,pEC50,A549; [2],4.89
same,pEC50,A549; [3],5.18
same,Top inhibition %,MiaPaCa-2; 96 hours,40.1%
same,pEC50,MiaPaCa-2; [2],< 4.52
same,pEC50,MiaPaCa-2; [3],5.36
same,Top inhibition %,HCT116; 96 hours,12.2%
same,pEC50,HCT116; [2],< 4.52
same,Top inhibition %,SW620; 96 hours,0.0%
same,pEC50,SW620; [2],< 4.52
same,Top inhibition %,Capan-1; 96 hours,35.7%
same,pEC50,Capan-1; [2],< 4.52
same,pEC50,Capan-1; [3],5.27
same,Top inhibition %,SW900,10.9%
same,Top inhibition %,BxPC-3,36.67%
same,Top inhibition %,LS180; 96 hours,6.8%
same,pEC50,LS180; [2],< 4.52
same,Top inhibition %,H1915,28.9%
same,Top inhibition %,Colo205,73.2%
same,Top inhibition %,HL60; 96 hours,63.9%
same,pEC50,HL60; [2],4.77
same,pEC50,HL60; [3],4.89
same,Top inhibition %,H727; 96 hours,42.8%
same,pEC50,H727; [2],< 4.52
same,pEC50,H727; [3],5.44
same,Top inhibition %,RPMI8226,22.72%
same,Top inhibition %,THP1; 96 hours,51.4%
same,pEC50,THP1; [2],4.80
same,pEC50,THP1; [3],5.09
CC(=O)O[C@@]12C[C@@H](C)[C@]3(O)C4C=C(C)C(=O)[C@@]4(O)CC(COC(=O)CC(N)C(=O)[O-])=C[C@H]3[C@@H]1C2(C)C.[Na+] (some centres unmarked) [Compound K-101I],Top inhibition %,Panc2.03,26.3%
same,pEC50,Panc2.03; [2],< 4.52
same,pEC50,Panc2.03; [3],5.22
same,Top inhibition %,Panc2.13; 96 hours,48.3%
same,pEC50,Panc2.13; [2],< 4.52
same,pEC50,Panc2.13; [3],6.80
same,Top inhibition %,HT29,11.8%
same,Top inhibition %,H838,29.3%
same,Top inhibition %,AsPC-1; 96 hours,25.0%
same,pEC50,AsPC-1; [2],< 4.52
same,pEC50,AsPC-1; [3],5.18
same,Top inhibition %,SW900,10.8%
same,Top inhibition %,BxPC-3,38.12%
same,Top inhibition %,H1915,16.4%
same,Top inhibition %,CCRF-CEM; 96 hours,37.4%
same,pEC50,CCRF-CEM; [2],< 4.52
same,pEC50,CCRF-CEM; [3],5.82
same,Top inhibition %,Colo205,82.2%
same,Top inhibition %,RPMI8226,17.60%
"CCC/C=C/C=C/C(=O)O[C@H]1/C(=C/C(=O)OC)C[C@H]2C[C@H]([C@@H](C)O)OC(=O)C[C@H](O)C[C@@H]3C[C@H](OC(C)=O)C(C)(C)[C@](O)(C[C@@H]4C/C(=C/C(=O)OC)C[C@H](/C=C/C(C)(C)[C@]1(O)O2)O4)O3 [Compound K-104, Bryostatin 1]",potency in proliferation inhibition relative to prostratin,[1],less potent in proliferation inhibition
same,activity in cancer cell lines,[1]; cell lines with wild-type K-ras and K-ras G12 mutations (Table 7),much lower activity
"CC(=O)O[C@H]1C(=O)[C@@]2(C)[C@H]([C@H](OC(=O)c3ccccc3)[C@]3(O)C[C@H](OC(=O)[C@H](O)[C@@H](NC(=O)c4ccccc4)c4ccccc4)C(C)=C1C3(C)C)[C@]1(OC(C)=O)CO[C@@H]1C[C@@H]2O [Paclitaxel, reference compound]",Top inhibition %,Panc2.03,64.6%
